Assay results taken from PMC7317715, “Discovery of a novel fluorescent chemical probe suitable for evaluation of neuropilin‐1 binding of small molecules” (Drug Development Research, 2020).
Where two headings read alike, the source gives them in different places. Bridge positions count the residues as written; N and C are the ends. Peptide text beside a SMILES is read from it.

T1: NRP1‐b1 domain (Homo sapiens, UniProt O14786)
T1 construct: Ligands were evaluated against the NRP1‐b1 domain
T1 sequence (O14786 275-424 limits assumed): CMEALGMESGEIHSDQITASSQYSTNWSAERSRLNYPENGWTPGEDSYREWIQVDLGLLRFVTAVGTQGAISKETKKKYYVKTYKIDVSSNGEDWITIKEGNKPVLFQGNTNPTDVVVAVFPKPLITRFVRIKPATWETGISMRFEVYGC

T2: NRP1 b1 (Homo sapiens, UniProt O14786)
T2 construct: Ligands were evaluated against the NRP1‐b1 domain
T2 sequence (O14786 275-424 limits assumed): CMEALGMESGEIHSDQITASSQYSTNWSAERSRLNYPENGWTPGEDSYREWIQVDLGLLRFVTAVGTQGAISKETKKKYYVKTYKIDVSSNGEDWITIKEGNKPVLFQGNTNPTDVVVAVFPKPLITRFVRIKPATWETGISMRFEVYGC


Key:
NRP1‐b1 domain = biological target: T1, NRP1‐b1 domain; assay: SPR binding of fluorescent probes to immobilised NRP1-b1; settings: for Kd: NRP1‐b1 on CM5 chip, 3% DMSO in PBS‐P, 1:1 binding model, read-out: KD (μM, affinity); for Observed Rmax (% of theoretical): experimentally observed Rmax as percentage of theoretical Rmax (quality control)
Method: All SPR analysis was performed on a BIAcore T200 system using series S CM5 sensor chips. The […] SPR is effectively a stop‐flow instrument, and dissociation from the immobilized protein is initiated by the absence of analyte (ligand) when buffer alone is perfused, this setup allows the determination of on and off rates and equilibrium binding constants. Relatively high DMSO concentrations are normal for SPR experiments to limit solubility problems and minimize nonspecific aggregation. Extensive DMSO controls are included and automatically subtracted from the sensorgrams. Sensorgrams were double referenced by subtracting the response on a reference flow cell and a blank sample. Ligands were evaluated against the NRP1‐b1 domain. NRP1‐b1 was covalently attached to a CM5 chip via amine coupling (Powell et al., 2018) with a surface density of 2,000–3,000 RU. Binding of novel fluorescent probes (0.4–100 μM) were analyzed by multicycle sequential injections (30–120 s association time) followed by undisturbed dissociation (30–60 s). A regeneration step was not used. Peptide stocks were dissolved in dimethyl sulfoxide (DMSO), and the final sample solutions for kinetic affinity experiments contained 3% DMSO in 1× phosphate‐buffered saline P20 buffer (PBS‐P, Cat no 28995084, GE Healthcare Ltd.). DMSO solvent effects were corrected for with eight calibration solutions ([…] in PBS‐P). Equilibrium constants (KD) were calculated using either kinetic or affinity models, assuming simple 1:1 (Langmuir) binding. Data processing and analysis were performed using BIAevaluation and OriginPro software. The theoretical Rmax (the maximal feasible signal between a ligand—analyte pair) for each compound/protein pair was calculated using Scheme 1 (Marquart, 2017).
The experimentally observed Rmax was then calculated as a percentage of the theoretical Rmax as a quality control measure.

NRP1 b1 [1] = biological target: T2, NRP1 b1; assay: FP saturation binding / protein titration (dynamic range); settings: for Kd: KD derived from the 50% signal maximum; for Dynamic window (mP): FP, probe + NRP1‐b1 vs probe only, probe and NRP‐b1 conc per probe as in Table 2
Method: Initial experiments were performed using PBS‐P buffer with 3% DMSO in a final volume of 80 μl. The reaction plates or tubes were kept on ice during pipetting.
Saturation binding: dynamic range and protein titration experiments were performed at probe concentrations selected with guidance from in‐house SPR analysis, literature KD of the untagged compound, and an FP technical resource guide (Invitrogen, 2006). The NRP‐b1 concentrations ranged from 10 nM to 30 μM.

NRP1 [2] = settings: NRP1 inhibition using bt‐VEGF165 binding; ref Jia et al., 2006; read-out: Literature IC50; cited from earlier work
NRP1 b1 [3] = biological target: T2, NRP1 b1; assay: FP competition experiment with DS108 probe; assay type: binding; settings: for IC50: FP competition, DS108 0.75 μM, NRP1 b1 7.5 μM, PBS‐P buffer; for Ki: calculated from FP competition IC50 using kinetic equations (Nikolovska‐Coleska et al., 2004)
Method: Competition experiments: FP samples were prepared in the following order—ligand in PBS‐P buffer (20 μl), NRP1‐b1 protein ([…], 20 μl) in PBS‐P buffer, and DS108 probe (1,500 nM, 40 μl) in PBS‐P buffer. FP was measured and normalized to experiment controls (buffer + probe, buffer + probe + protein) using a BMG Labtech PHERAstar® plate reader (filter settings: 485 nm [excitation] and 520 nm [emission]). Background FP was blanked using a PBS‐P buffer only control.
Data processing: raw data were processed using OriginPro curve fitting software to obtain the IC50s and error values shown. A dose–response curve fitting model was utilized for the competition experiments. A web based IC50‐to‐Ki converter that computes Ki values from experimentally determined IC50 values was employed (Cer, Mudunuri, Stephens, & Lebeda, 2009) (https://bioinfo-abcc.ncifcrf.gov/IC50_Ki_Converter/index.php) Each experiment was conducted in triplicate and repeated two times. The statistical reproducibility of this assay was evaluated using the z factor equation (Scheme 2).

NRP1 [4] = system: NRP1; set-up: method as in Powell et al., 2018; settings: ref Powell et al., 2018; cited from earlier work
5-Flu-RPARPAR [5] = biological target: 5-Flu-RPARPAR
5-Flu-RPARPAR [6] = assay: SPR

Molecule | Kd (NRP1‐b1 domain) [µM] | Observed Rmax (% of theoretical) (NRP1‐b1 domain) [%] | Kd (NRP1 b1 [1]; FP protein titration) [µM] | Dynamic window (mP) (NRP1 b1 [1]) | IC50 (NRP1 b1 [3]) [µM] | Ki (NRP1 b1 [3]) [µM] | further results
N=C(N)NCCC[C@H](NC(=O)c1sccc1NS(=O)(=O)c1cc(-c2ccc(CNC(=O)CCOCCOCCOCCOCCOCc3cn(CCCNC(=O)c4ccc5c(c4)C(=O)OC54c5ccc(O)cc5Oc5cc(O)ccc54)nn3)cc2)cc2c1OCC2)C(=O)O [probe 4, (3‐((5‐(4‐(1‐(1‐(3‐(3′,6′‐dihydroxy‐3‐oxo‐3H‐spiro(isobenzofuran‐1,9′‐xanthene)‐5‐carboxamido)propyl)‐1H‐1,2,3‐triazol‐4‐yl)‐17‐oxo‐2,5,8,11,14‐pentaoxa‐18‐azanonadecan‐19‐yl)phenyl)‐2,3‐dihydrobenzofuran)‐7‐sulfonamido)thiophene‐2‐carbonyl)‐L‐arginine] | 3.3 ± 0.2 | 43 | 0.62 ± 0.098 | 5.2 |  |  | 
CC(C)C[C@@H]1NC(=O)[C@H](CCC(N)=O)NC(=O)[C@H](CCCNC(=N)N)NC(=O)[C@H](C)NC(=O)[C@H](CCCCN)NC(=O)[C@@H]2CSSC[C@@H](C(=O)N[C@@H](CC(=O)O)C(=O)N[C@@H](CCCCN)C(=O)N3CCC[C@H]3C(=O)N[C@@H](CCCNC(=N)N)C(=O)N[C@@H](CCCNC(=N)N)C(=O)O)NC(=O)[C@H](CCCNC(=N)N)NC(=O)[C@H](CSSC[C@H](NC(=O)[C@@H](N)CO)C(=O)N[C@@H](CCCCN)C(=O)N[C@@H](CC(N)=O)C(=O)N[C@@H]([C@@H](C)O)C(=O)N[C@@H](CC(=O)O)C(=O)N[C@@H](CO)C(=O)N[C@@H](CCCNC(=N)N)C(=O)N2)NC(=O)[C@H]([C@@H](C)O)NC(=O)[C@H](CCCNC(=N)N)NC(=O)[C@H](CCC(=O)O)NC(=O)[C@H](CC(N)=O)NC(=O)[C@H](CC(C)C)NC(=O)[C@H](CCC(=O)O)NC1=O [EG03287] (H-SCKNTDSRCKARQLELNERTCRCDKPRR-OH; disulfide 2-21, 9-23; N-terminus and C-terminus assumed) |  |  |  |  | 5.77 ± 0.87 | 2.47 | IC50 (NRP1 [2]): 1.2 µM
N=C(N)NCCC[C@H](NC(=O)c1sccc1NS(=O)(=O)c1cc(-c2ccc(CN)cc2)cc2c1OCC2)C(=O)O [EG01377] |  |  |  |  | 16.8 ± 1.25 | 7.39 | NRP1 antagonistic properties (NRP1 [4]): submicromolar; selectivity for NRP1 over NRP2 receptor (NRP1 [4]): selective for NRP1
RPARPAR [reference compound] | 69 ± 22 | 60.61 |  | 22.6 |  |  | Kd (NRP1 b1 [1]; […]): 1.88 ± 1.4 µM
N=C(N)NCCC[C@H](NC(=O)c1sccc1NS(=O)(=O)c1cc(-c2ccc(CNC(=O)CCOCCOCCOCCNC(=O)c3ccc(-c4c5ccc(=O)cc-5oc5cc(O)ccc45)c(C(=O)O)c3)cc2)cc2c1OCC2)C(=O)O [probe 3, (S)‐5‐((1‐(4‐(7‐(N‐(2‐((1‐carboxy‐4‐guanidinobutyl)carbamoyl)thiophen‐3‐yl)sulfamoyl)‐2,3‐dihydrobenzofuran‐5‐yl)phenyl)‐3‐oxo‐6,9,12‐trioxa‐2‐azatetradecan‐14‐yl)carbamoyl)‐2‐(6‐hydroxy‐3‐oxo‐3H‐xanthen‐9‐yl)benzoic acid] | 24.6 ± 6.3 | 77 | 4.61 ± 0.19 | 30.7 |  |  | 
NRP1 b1 b1 domain (protein) FKCMEALGMESGEIHSDQITASSQYSTNWSAERSRLNYPENGWTPGEDSYREWIQVDLGLLRFVTAVGTQGAISKETKKKYYVKTYKIDVSSNGEDWITIKEGNKPVLFQGNTNPTDVVVAVFPKPLITRFVRIKPATWETGISMRFEVYGCKIT |  |  |  |  |  |  | Kd (5-Flu-RPARPAR [5]): 1.88 µM; Kd (5-Flu-RPARPAR [6]): 69 µM
